Patent publication US20040151785A1, “Method for treating insulin resistance through hepatic nitric oxide” (DiaMedica Inc., priority 1998, published 2004)
Like-named read-outs stand apart in the source and are kept apart here.

What was measured:
rats [1] = assay: Rapid insulin sensitivity test (RIST), modified euglycemic clamp, in anesthetized rats; format: in vivo, rat; settings: for inhibition at 50 mg/kg: Rattus norvegicus, iv
Description: Surgical preparation. The left jugular vein was cannulated for glucose infusion. Spontaneous respiration was allowed through a tracheal tube. The blood samples (25 μl) were obtained through a right femoral arterial-venous loop (30). The right femoral artery was cannulated with the arterial side of the loop. The right femoral vein was cannulated with the venous side of the arterial-venous loop. Arterial blood pressure was monitored via the arterial-venous loop by clamping the silicon sleeve on the venous side of the loop. One of the advantages of using this loop is that blood samples can be taken directly from a moving stream of blood with no need to wash or flush sampling catheters. The arterial blood continuously flows through the loop into the venous side. Intravenous infusions, except glucose, were given through the venous side of the loop.

rats [2] = assay: Arterial blood pressure monitored via arterial-venous loop during RIST experiments; format: in vivo, rat; settings: after atropine, group given intravenous L-NAME 1.0 mg/kg
Description: Surgical preparation. The left jugular vein was cannulated for glucose infusion. Spontaneous respiration was allowed through a tracheal tube. The blood samples (25 μl) were obtained through a right femoral arterial-venous loop (30). The right femoral artery was cannulated with the arterial side of the loop. The right femoral vein was cannulated with the venous side of the arterial-venous loop. Arterial blood pressure was monitored via the arterial-venous loop by clamping the silicon sleeve on the venous side of the loop. One of the advantages of using this loop is that blood samples can be taken directly from a moving stream of blood with no need to wash or flush sampling catheters. The arterial blood continuously flows through the loop into the venous side. Intravenous infusions, except glucose, were given through the venous side of the loop. After laparotomy, the portal vein was cannulated with a 24G (OPTIVA™, Johnson & Johnson Medical Inc.) intravenous catheter for intraportal drug administration.

cats = settings: cited from earlier work

## N=C(N)NCCC[C@H](N)C(=O)O [L-arginine]
Rats [1]; read-out: inhibition of control RIST
  inhibition at 50 mg/kg: 53.8 ± 7.1%
Rats [1]; read-out: inhibition of the control response
  inhibition at 50 mg/kg: 48.8 ± 8.2%

## CN1[C@@H]2CC[C@H]1C[C@@H](OC(=O)C(CO)c1ccccc1)C2 (stereo partly drawn) [atropine]
Rats [2]
  blood pressure: 93.0±8.6 mmHg

## COc1ccccc1CNCCCCCCNCCCCCCCCNCCCCCCNCc1ccccc1OC [methoctramine]
cats
  dose required to produce a full / similar degree of insulin resistance: 10^−8 μmol/kg

## CN1CCN(CC(=O)N2c3ccccc3C(=O)Nc3cccnc32)CC1 [parenzepine]
cats
  dose achieving a similar degree of insulin resistance: 10^−7 mmol/kg

## [NH-]c1c[n+](N2CCOCC2)no1 [SIN-1, 3-morpholinosyndnonimine]
Rats [1]; SIN-1 5.0 mg/kg intraportal after intraportal L-NMMA 0.73 mg/kg, n=5
  inhibition of the control RIST remaining: 24.0±11.6%
Rats [1]; SIN-1 5.0 mg/kg intravenous after intraportal L-NMMA 0.73 mg/kg, n=4
  inhibition of the control RIST remaining: 59.0±7.2%
Rats [1]; SIN-1 10.0 mg/kg intraportal after intraportal L-NMMA 0.73 mg/kg, n=5
  inhibition of the control RIST remaining: 0.6±5.8%
Rats [1]; SIN-1 10.0 mg/kg intraportal after surgical denervation of the hepatic anterior plexus, n=6
  inhibition of the control RIST remaining: 3.8±10.4%
